Test results taken from patent US12018253B2, “Method of detecting Polycomb Repressive Complex activity” (IMBA—INSTITUT FÜR MOLEKULARE BIOTECHNOLOGIE GMBH, priority 2017, dated 2024).
Non-standard residues stand in square brackets, D forms with d. Residues, ends and D or L forms follow the SMILES beside them. *: point of attachment. Benzoyl(4-tBu) = CC(C)(C)c1ccc(C(=O)*)cc1; Lys(Et2) = CCN(CC)CCCC[C@H](N)C(=O)O

Tests used:
[1] = target: T1, PRC2 (Mus musculus, UniProt Q61188); experiment: Immuno blot of H3K27me3, Ezh2 and Cbx7 in parental TetO-mESCs treated with GSK126; format: cell-based
T1 construct: endogenous in cells; host or cells: parental TetO-mESCs (mouse embryonic stem cells derived from haploid mESCs)
Method: Nuclear extract from 10×10^6 mESCs was obtained by lysis in Buffer A (final: 25 mM Hepes ph 7.6, 5 mM MgCl2, 25 mM KCl, 0.05 mM EDTA, 10% Glycerol, 1 mM DTT, 1 mM PMSF, 1× Complete Mini protease inhibitor) followed by collection in RIPA buffer (final: 150 mM NaCl, 1% triton, 0.5% sodium deoxy-cholate, 0.1% SDS, 50 mM Tris pH 8.0). Nuclear extracts were homogenized by sonication in a Diagenode Bioruptor and concentration was determined by Bradford assay (Biorad). 20 μg/lane total protein was run on Novex Life Technology NuPAGE 4-12% Bis-Tris gels in Invitrogen NuPAGE MES SDS Running Buffer and transferred on a Merck Chemicals Immobilon-P Membrane (PVDF […]). The membrane was blocked (5% non-fat dry milk in 1×PBS, 0.1% Tween 20) and incubated with the following primary antibodies (5% non-fat dry milk in 1×PBS, 0.1% Tween 20): H3K27me3 (Diagenode, C15410195), Cbx7 (Abcam, ab21873), RYBP (Sigma, PRS2227), H2AK119ub (Cell Signaling, D27C4), Ezh2 (Active Motif, 39901). Finally, the membrane was incubated with corresponding secondary HRP coupled antibodies (5% non-fat dry milk in 1×PBS, 0.1% Tween 20), developed using Clarity Western ECL Substrate (Biorad) and imaged by a ChemiDoc XRS+ Imaging system (Biorad).

[2] = system: cPRC1-TetO-mESCs; experiment: Chemical inhibition in cPRC1-TetO-mESCs (TetR-Cbx7 dual GFP/BFP reporter), flow cytometry without and with Dox; format: cell-based, mouse; conditions: for initiation of reporter gene silencing: TetR-Cbx7 tethered, absence of Dox; for maintenance of reporter gene silencing (repression): presence of Dox (1 μg/ml), increasing concentrations of compound

T1 sequence (Q61188 whole entry): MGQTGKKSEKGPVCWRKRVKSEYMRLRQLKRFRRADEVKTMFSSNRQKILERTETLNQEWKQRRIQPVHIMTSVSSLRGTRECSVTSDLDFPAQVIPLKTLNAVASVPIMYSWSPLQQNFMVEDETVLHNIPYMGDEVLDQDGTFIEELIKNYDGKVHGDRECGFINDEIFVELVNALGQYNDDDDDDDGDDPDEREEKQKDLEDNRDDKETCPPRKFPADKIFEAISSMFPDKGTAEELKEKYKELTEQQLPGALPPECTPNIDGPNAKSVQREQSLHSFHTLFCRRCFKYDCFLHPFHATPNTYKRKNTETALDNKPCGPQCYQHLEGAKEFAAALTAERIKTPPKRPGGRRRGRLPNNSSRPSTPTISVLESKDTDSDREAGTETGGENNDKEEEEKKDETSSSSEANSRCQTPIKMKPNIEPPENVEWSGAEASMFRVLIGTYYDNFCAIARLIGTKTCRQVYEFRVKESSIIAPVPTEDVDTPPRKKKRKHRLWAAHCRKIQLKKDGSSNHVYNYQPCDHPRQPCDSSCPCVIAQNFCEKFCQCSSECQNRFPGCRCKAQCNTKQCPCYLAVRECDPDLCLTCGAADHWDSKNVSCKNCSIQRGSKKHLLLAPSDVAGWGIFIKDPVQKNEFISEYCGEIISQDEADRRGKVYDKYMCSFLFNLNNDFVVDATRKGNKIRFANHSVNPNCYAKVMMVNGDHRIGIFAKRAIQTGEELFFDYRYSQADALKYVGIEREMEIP
T1 sequence (Q921E6 whole entry partner): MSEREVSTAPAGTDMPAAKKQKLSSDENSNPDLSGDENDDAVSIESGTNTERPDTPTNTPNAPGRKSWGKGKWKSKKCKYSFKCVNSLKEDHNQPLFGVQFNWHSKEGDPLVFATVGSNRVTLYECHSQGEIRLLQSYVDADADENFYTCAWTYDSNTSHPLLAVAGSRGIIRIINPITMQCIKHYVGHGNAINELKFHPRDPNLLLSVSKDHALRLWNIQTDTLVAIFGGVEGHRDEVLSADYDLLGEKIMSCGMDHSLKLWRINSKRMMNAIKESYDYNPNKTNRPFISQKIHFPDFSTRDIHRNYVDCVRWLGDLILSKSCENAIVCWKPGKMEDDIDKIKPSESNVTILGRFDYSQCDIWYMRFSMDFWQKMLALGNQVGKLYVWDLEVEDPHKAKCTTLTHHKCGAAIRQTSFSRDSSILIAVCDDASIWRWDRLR
T1 sequence (Q80U70 whole entry partner): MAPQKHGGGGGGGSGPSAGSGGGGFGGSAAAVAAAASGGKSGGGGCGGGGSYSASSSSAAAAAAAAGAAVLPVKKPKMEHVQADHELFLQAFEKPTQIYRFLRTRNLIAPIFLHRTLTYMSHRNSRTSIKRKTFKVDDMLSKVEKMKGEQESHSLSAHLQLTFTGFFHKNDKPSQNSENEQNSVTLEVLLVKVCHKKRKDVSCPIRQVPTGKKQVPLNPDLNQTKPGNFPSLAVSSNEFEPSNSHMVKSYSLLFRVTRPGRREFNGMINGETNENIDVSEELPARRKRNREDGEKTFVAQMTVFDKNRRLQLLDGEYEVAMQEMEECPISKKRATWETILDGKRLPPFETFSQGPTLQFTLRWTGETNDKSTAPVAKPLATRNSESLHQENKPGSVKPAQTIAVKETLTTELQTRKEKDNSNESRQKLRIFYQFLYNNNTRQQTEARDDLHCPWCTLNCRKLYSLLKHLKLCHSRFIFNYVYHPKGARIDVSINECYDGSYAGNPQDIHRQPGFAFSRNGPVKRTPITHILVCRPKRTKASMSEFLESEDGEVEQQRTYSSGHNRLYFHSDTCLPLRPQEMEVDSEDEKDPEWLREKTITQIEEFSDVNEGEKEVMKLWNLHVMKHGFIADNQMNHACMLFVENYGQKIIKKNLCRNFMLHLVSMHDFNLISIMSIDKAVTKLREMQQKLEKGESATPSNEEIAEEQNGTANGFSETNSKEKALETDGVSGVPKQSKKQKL
T1 sequence (Q60972 whole entry partner): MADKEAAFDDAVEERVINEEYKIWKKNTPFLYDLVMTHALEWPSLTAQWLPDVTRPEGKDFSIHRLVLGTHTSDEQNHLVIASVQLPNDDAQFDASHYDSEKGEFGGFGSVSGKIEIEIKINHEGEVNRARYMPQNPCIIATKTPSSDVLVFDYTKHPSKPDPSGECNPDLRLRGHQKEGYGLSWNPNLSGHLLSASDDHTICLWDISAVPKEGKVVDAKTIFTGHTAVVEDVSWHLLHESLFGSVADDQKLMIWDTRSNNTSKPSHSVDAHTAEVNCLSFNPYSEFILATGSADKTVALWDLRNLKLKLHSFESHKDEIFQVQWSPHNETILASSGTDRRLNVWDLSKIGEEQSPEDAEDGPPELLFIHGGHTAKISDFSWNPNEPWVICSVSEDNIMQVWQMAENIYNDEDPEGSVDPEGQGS

SMILES | H3K27me3 by Western blot ([1]; GSK126-treated parental mESCs (4 μM per FIG. 10A)) | inhibition of the catalytic activity of PRC2 ([1]; parental TetO-mESCs, 4 μM GSK126, immuno blot) | endogenous PRC2 and cPRC1 stability ([1]; parental TetO-mESCs, 4 μM GSK126, immuno blot of Ezh2 and Cbx7) | initiation of reporter gene silencing [2] | reduction in silencing, distal BFP reporter compared with proximal GFP reporter ([2]; presence of Dox) | maintenance of reporter gene silencing (repression) [2]
CC[C@H](C)n1cc(C)c2c(C(=O)NCc3c(C)cc(C)[nH]c3=O)cc(-c3ccc(N4CCNCC4)nc3)cc21 [GSK126] | undetectable | specific and reversible inhibition | without disrupting | did not disrupt | more prominent at the distal BFP reporter than the proximal GFP promoter | reduced by GSK126-treatment in a dose-dependent manner
CCN(CC)CCCC[C@H](NC(=O)[C@H](CC(C)C)NC(=O)[C@H](C)NC(=O)[C@H](Cc1ccccc1)NC(=O)c1ccc(C(C)(C)C)cc1)C(=O)N[C@@H](CO)C(=O)OC [UNC3866] ({Benzoyl(4-tBu)}-FAL[Lys(Et2)]S-OMe) | – | – | – | Neither compound had a significant effect | – | disrupted only by UNC3866 treatment in a dose-dependent manner
